Test results reported in patent US6509153B1, “Genetic markers of toxicity preparation and uses” (Exonhit Therapeutics SA, priority 1999, dated 2003).
Structures can show the parent of a compound that is named as a salt.

Tested on: not listed separately
Assay: cell viability test (MTT) used to calculate the IC80 concentration
Type: cell-based
Conditions: human; HepG2 cells, exposure time 4 h; read-out: Concentration (corresponds to an IC80, MTT)
Source text: (§1) HepG2 cells are then individually treated with different compounds with different levels of toxicity.

SMILES	IC80 at 4 h
CC[C@@]1(O)C(=O)OCc2c1cc1n(c2=O)Cc2cc3ccccc3nc2-1 [Camptothecin]	1 µg/mL
CCO [Ethanol]	100000 µM

Same assay, conditions: human; HepG2 cells, exposure time 18 h; read-out: Concentration (corresponds to an IC80, MTT)

SMILES	IC80 at 18 h	IC80 [µM]
CC(=O)Oc1ccccc1C(=O)O [Aspirin]	2000 µM	–
Clc1cccc(Cl)c1N=C1NCCN1 [Clonidine]	150 µM	–
C[C@@H]1C[C@@H]([C@H](O)CC2CC(=O)NC(=O)C2)C(=O)[C@@H](C)C1 [Cycloheximide]	5 µg/mL	–
O=C(O)Cc1ccccc1Nc1c(Cl)cccc1Cl [Diclofenac]	50 µg/mL	–
CNC[C@H](O)c1ccc(O)c(O)c1 [Epinephrine Hydrate]	50 µg/mL	–
CC[C@H]1OC(=O)[C@H](C)[C@@H](O[C@H]2C[C@@](C)(OC)[C@@H](O)[C@H](C)O2)[C@H](C)[C@@H](O[C@@H]2O[C@H](C)C[C@H](N(C)C)[C@H]2O)[C@](C)(O)C[C@@H](C)C(=O)[C@H](C)[C@@H](O)[C@]1(C)O [Erythromycin]	2.5 µg/mL	–
COc1cc([C@@H]2c3cc4c(cc3[C@@H](O[C@@H]3O[C@@H]5CO[C@@H](C)O[C@H]5[C@H](O)[C@H]3O)[C@H]3COC(=O)[C@H]23)OCO4)cc(OC)c1O [Etoposide]	50 µg/mL	–
CN(Cc1cnc2nc(N)nc(N)c2n1)c1ccc(C(=O)N[C@@H](CCC(=O)O)C(=O)O)cc1 [Methotrexate]	0.5 µM	–
CC(=O)Nc1ccc(O)cc1 [Paracetamol]	1000 µM	–
CN[C@@H]1C[C@H]2O[C@@](C)([C@@H]1OC)n1c3ccccc3c3c4c(c5c6ccccc6n2c5c31)C(=O)NC4 [Staurosporine]	–	0.05
CC(C)(C)NCC(O)c1cc(O)cc(O)c1 (stereo not shown) [Terbutaline Sulfate]	0.2 µg/mL	–
CC(C)[C@@H]1NC(=O)[C@H](C)OC(=O)[C@@H](C(C)C)NC(=O)[C@@H](C(C)C)OC(=O)[C@H](C(C)C)NC(=O)[C@H](C)OC(=O)[C@@H](C(C)C)NC(=O)[C@@H](C(C)C)OC(=O)[C@H](C(C)C)NC(=O)[C@H](C)OC(=O)[C@@H](C(C)C)NC(=O)[C@@H](C(C)C)OC1=O [Valinomycin]	0.015 µM	–
CC[C@]1(O)C[C@@H]2CN(CCc3c([nH]c4ccccc34)[C@@](C(=O)OC)(c3cc4c(cc3OC)N(C)[C@H]3[C@@](O)(C(=O)OC)[C@H](OC(C)=O)[C@]5(CC)C=CCN6CC[C@]43[C@@H]65)C2)C1 [Vinblastine Sulfate]	30 µM	–

Tested on: HepG2 cells
Assay: hybridization of probes from treated HepG2 cells on p53 apoptosis filter (toxicity index)
Type: cell-based
Conditions: HepG2 cells treated at IC80 concentration, compared with aspirin
Source text: as §1

SMILES	splicing events identical to those induced by p53-related toxicity (toxicity index ranking)
O=C(O)Cc1ccccc1Nc1c(Cl)cccc1Cl [Diclofenac]	generates more splicing events identical to those induced by p53 -related toxicity than aspirin
